Values after ≈ are worked out from the molar mass of the structure shown. Active and inactive are the calls of the source. The calls are words filed in the database; no cut-off is given here.
Columns and labels:
Aspergillus flavus [1] = test: Microbiostatic activity against Aspergillus flavus ATCC 10124; assay type: functional, organism-based
Candida albicans [2] = test: Microbiostatic activity against Candida albicans ATCC 76615; assay type: functional, organism-based
Escherichia coli [3] = test: Microbiostatic activity against Escherichia coli ATCC 25922 after […]; assay type: functional, organism-based
Candida albicans [4] = test: Antimicrobial activity against Candida albicans ATCC 76615 after 48 hr by two-fold serial dilution method; assay type: functional; conditions: ATCC 76615, 48 h
Pseudomonas aeruginosa [5] = test: Antimicrobial activity against Pseudomonas aeruginosa ATCC 27853 after 24 hr by two-fold serial dilution method; assay type: functional; conditions: ATCC 27853, 24 h
Proteus vulgaris [6] = test: Antimicrobial activity against Proteus vulgaris ATCC 6896 after 24 hr by two-fold serial dilution method; assay type: functional; conditions: ATCC 6896, 24 h
Escherichia coli [7] = test: Antimicrobial activity against Escherichia coli ATCC 25922 after 24 hr by two-fold serial dilution method; assay type: functional; conditions: ATCC 25922, 24 h
Bacillus spizizenii [8] = test: Antimicrobial activity against Bacillus subtilis subsp. spizizenii ATCC 6633 after 24 hr by two-fold serial dilution method; assay type: functional; conditions: ATCC 6633, 24 h
Staphylococcus aureus [9] = test: Antimicrobial activity against Staphylococcus aureus ATCC 25923 after 24 hr by two-fold serial dilution method; assay type: functional; conditions: ATCC 25923, 24 h
Proteus vulgaris [10] = test: Microbiostatic activity against Proteus vulgaris ATCC 6896 after 24 hr
Staphylococcus aureus [11] = test: Microbiostatic activity against Staphylococcus aureus ATCC 25923 after 24 hr
Pseudomonas aeruginosa [12] = test: Microbiostatic activity against Pseudomonas aeruginosa ATCC 27853 after 24 hr
Bacillus spizizenii [13] = test: Microbiostatic activity against Bacillus subtilis subsp. spizizenii ATCC 6633 after 24 hr
Aspergillus flavus [14] = test: Antimicrobial activity against Aspergillus flavus ATCC 10124 after 48 hr by two-foldserial dilution method; assay type: functional; conditions: ATCC 10124, 48 h

| SMILES | MIC (Candida albicans [4]) | MIC (Pseudomonas aeruginosa [5]) | MIC (Proteus vulgaris [6]) | MIC (Escherichia coli [7]) | MIC (Bacillus spizizenii [8]) | MIC (Staphylococcus aureus [9]) | MIC (Aspergillus flavus [14]) | Activity (Aspergillus flavus [1]) | Activity (Candida albicans [2]) | Activity (Escherichia coli [3]) | Activity (Proteus vulgaris [10]) | Activity (Staphylococcus aureus [11]) | Activity (Pseudomonas aeruginosa [12]) | Activity (Bacillus spizizenii [13]) |
| --- | --- | --- | --- | --- | --- | --- | --- | --- | --- | --- | --- | --- | --- | --- |
| O=C1COc2cc(Cl)ccc2N1CCc1ccccc1 | 128 µg/mL (≈ 445 µM) | 16 µg/mL (≈ 55.6 µM) | 16 µg/mL (≈ 55.6 µM) | 32 µg/mL (≈ 111 µM) | 64 µg/mL (≈ 222 µM) | 64 µg/mL (≈ 222 µM) |  | Active | Active | Active | Active | Active | Active | Active |
| O=C1COc2cc(Cl)ccc2N1Cc1ccccc1 | 128 µg/mL (≈ 468 µM) | 16 µg/mL (≈ 58.5 µM) | 64 µg/mL (≈ 234 µM) | 64 µg/mL (≈ 234 µM) | 32 µg/mL (≈ 117 µM) | 64 µg/mL (≈ 234 µM) | 128 µg/mL (≈ 468 µM) | Active | Active | Active | Active | Active | Active | Active |
| CC1(C)S[C@@H]2[C@H](NC(=O)[C@H](N)c3ccccc3)C(=O)N2[C@H]1C(=O)O [AMPICILLIN] |  | 128 µg/mL (≈ 366 µM) | 16 µg/mL (≈ 45.8 µM) | 16 µg/mL (≈ 45.8 µM) | 1 µg/mL (≈ 2.86 µM) | 2 µg/mL (≈ 5.72 µM) |  | Active | Active | Active | Active | Active | Active | Active |
| CCCCCCN1C(=O)COc2cc(Cl)ccc21 | 512 µg/mL (≈ 1910 µM) | 32 µg/mL (≈ 120 µM) | 16 µg/mL (≈ 59.8 µM) | 32 µg/mL (≈ 120 µM) | 32 µg/mL (≈ 120 µM) | 32 µg/mL (≈ 120 µM) |  | Active | Active | Active | Active | Active | Active | Active |
| O=C1COc2ccc(Cl)cc2N1Cc1ccccc1 | 64 µg/mL (≈ 234 µM) | 128 µg/mL (≈ 468 µM) | 32 µg/mL (≈ 117 µM) | 128 µg/mL (≈ 468 µM) | 32 µg/mL (≈ 117 µM) | 64 µg/mL (≈ 234 µM) | 32 µg/mL (≈ 117 µM) | Active | Active | Active | Active | Active | Active | Active |
| CN[C@@H]1[C@H](O[C@H]2[C@H](O[C@H]3[C@H](O)[C@@H](O)[C@H](N=C(N)N)[C@@H](O)[C@@H]3N=C(N)N)O[C@@H](C)[C@]2(O)C=O)O[C@@H](CO)[C@H](O)[C@H]1O [STREPTOMYCIN] |  | 2 µg/mL (≈ 3.44 µM) | 4 µg/mL (≈ 6.88 µM) | 4 µg/mL (≈ 6.88 µM) | 32 µg/mL (≈ 55 µM) | 2 µg/mL (≈ 3.44 µM) |  | Active | Active | Active | Active | Active | Active | Active |

The next lines start with results.

| MIC (Candida albicans [4]) | MIC (Pseudomonas aeruginosa [5]) | MIC (Proteus vulgaris [6]) | MIC (Escherichia coli [7]) | MIC (Bacillus spizizenii [8]) | MIC (Staphylococcus aureus [9]) | MIC (Aspergillus flavus [14]) | SMILES | Activity (Aspergillus flavus [1]) | Activity (Candida albicans [2]) | Activity (Escherichia coli [3]) | Activity (Proteus vulgaris [10]) | Activity (Staphylococcus aureus [11]) | Activity (Pseudomonas aeruginosa [12]) | Activity (Bacillus spizizenii [13]) |
| --- | --- | --- | --- | --- | --- | --- | --- | --- | --- | --- | --- | --- | --- | --- |
| 256 µg/mL (≈ 1020 µM) | 128 µg/mL (≈ 509 µM) | 16 µg/mL (≈ 63.7 µM) | 32 µg/mL (≈ 127 µM) | 32 µg/mL (≈ 127 µM) | 32 µg/mL (≈ 127 µM) |  | O=C1COc2cc(F)ccc2N1CC1CCCO1 (configuration not stated) | Active | Active | Active | Active | Active | Active | Active |
| 32 µg/mL (≈ 120 µM) | 64 µg/mL (≈ 241 µM) | 16 µg/mL (≈ 60.2 µM) | 128 µg/mL (≈ 482 µM) | 32 µg/mL (≈ 120 µM) | 128 µg/mL (≈ 482 µM) | 32 µg/mL (≈ 120 µM) | O=C1COc2ccc(Cl)cc2N1C1CCCCC1 | Active | Active | Active | Active | Active | Active | Active |
| 256 µg/mL (≈ 825 µM) | 16 µg/mL (≈ 51.6 µM) | 32 µg/mL (≈ 103 µM) | 16 µg/mL (≈ 51.6 µM) | 32 µg/mL (≈ 103 µM) | 32 µg/mL (≈ 103 µM) |  | O=C1COc2cc(Br)ccc2N1C1CCCCC1 | Active | Active | Active | Active | Active | Active | Active |
| 128 µg/mL (≈ 509 µM) | 128 µg/mL (≈ 509 µM) | 16 µg/mL (≈ 63.7 µM) | 16 µg/mL (≈ 63.7 µM) | 32 µg/mL (≈ 127 µM) | 32 µg/mL (≈ 127 µM) | 128 µg/mL (≈ 509 µM) | CCCCCCN1C(=O)COc2cc(F)ccc21 | Active | Active | Active | Active | Active | Active | Active |
